# Read-outs that look alike come from different tables or passages of the source.
# Key:
# Experiment in all cases: TGFα-shedding assay-based GPCR screening with chimeric Gα subunit proteins
# Assay type in all cases: cell-based
# 348 GPCRs [1] = target: 348 GPCRs (Homo sapiens, UniProt P41145); settings: read-out: % GPCR activation compared to TPA, OPRK1 (opioid receptor, kappa 1 (KOR)); 10µM, Favipiravir 100μM
# 348 GPCRs [2] = target: T1, 348 GPCRs (Homo sapiens, UniProt P25100)
# T1 construct: expressed in transfected cells; host or cells: HEK293A
# T1 sequence (P25100 1-572): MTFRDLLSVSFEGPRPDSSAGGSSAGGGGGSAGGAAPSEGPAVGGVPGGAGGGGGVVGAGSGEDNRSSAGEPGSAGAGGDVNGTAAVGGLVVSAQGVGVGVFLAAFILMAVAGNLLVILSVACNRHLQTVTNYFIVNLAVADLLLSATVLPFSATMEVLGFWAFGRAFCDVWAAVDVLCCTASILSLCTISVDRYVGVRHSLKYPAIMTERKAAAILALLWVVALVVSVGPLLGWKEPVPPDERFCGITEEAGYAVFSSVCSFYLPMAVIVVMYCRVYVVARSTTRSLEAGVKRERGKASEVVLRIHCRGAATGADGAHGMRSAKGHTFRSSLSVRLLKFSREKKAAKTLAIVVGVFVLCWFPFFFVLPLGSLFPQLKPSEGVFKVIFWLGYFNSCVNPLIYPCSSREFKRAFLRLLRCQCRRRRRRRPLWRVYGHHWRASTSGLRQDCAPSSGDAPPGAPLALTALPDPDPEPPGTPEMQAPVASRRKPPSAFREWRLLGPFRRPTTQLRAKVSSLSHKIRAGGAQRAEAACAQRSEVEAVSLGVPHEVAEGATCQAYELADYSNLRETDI
# 348 GPCRs [3] = target: T2, 348 GPCRs (Homo sapiens, UniProt Q9Y2T5)
# T2 construct: expressed in transfected cells; host or cells: HEK293A
# 348 GPCRs [4] = target: T3, 348 GPCRs (Homo sapiens, UniProt P32246); settings: 10µM, Favipiravir 100μM
# T3 construct: expressed in transfected cells; host or cells: HEK293A
# T3 sequence (P32246 1-355): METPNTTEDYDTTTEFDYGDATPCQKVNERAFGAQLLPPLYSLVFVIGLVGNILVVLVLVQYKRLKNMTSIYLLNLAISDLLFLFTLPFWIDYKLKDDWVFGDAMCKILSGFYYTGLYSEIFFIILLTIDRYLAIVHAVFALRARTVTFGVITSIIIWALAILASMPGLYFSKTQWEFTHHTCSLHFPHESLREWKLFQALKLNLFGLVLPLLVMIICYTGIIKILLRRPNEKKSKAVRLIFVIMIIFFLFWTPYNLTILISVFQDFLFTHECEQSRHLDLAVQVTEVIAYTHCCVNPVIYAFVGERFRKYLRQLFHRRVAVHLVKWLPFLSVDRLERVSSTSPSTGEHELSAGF
# 348 GPCRs [5] = target: T4, 348 GPCRs (Homo sapiens, UniProt P55085); settings: 10µM, Favipiravir 100μM
# T4 construct: expressed in transfected cells; host or cells: HEK293A
# T4 sequence (P55085 26-397): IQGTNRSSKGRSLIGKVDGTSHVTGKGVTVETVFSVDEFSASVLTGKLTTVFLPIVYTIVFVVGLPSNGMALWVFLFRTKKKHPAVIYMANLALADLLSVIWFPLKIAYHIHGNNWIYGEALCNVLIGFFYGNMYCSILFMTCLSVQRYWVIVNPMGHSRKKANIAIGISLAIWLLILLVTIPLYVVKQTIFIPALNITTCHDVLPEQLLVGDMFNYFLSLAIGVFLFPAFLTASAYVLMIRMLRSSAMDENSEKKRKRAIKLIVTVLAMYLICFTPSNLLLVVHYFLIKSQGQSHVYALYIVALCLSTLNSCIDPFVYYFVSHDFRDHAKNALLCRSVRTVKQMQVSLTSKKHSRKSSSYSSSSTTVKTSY
# 348 GPCRs [6] = target: T5, 348 GPCRs (Homo sapiens, UniProt Q16581); settings: 10µM, Favipiravir 100μM
# T5 sequence (Q16581 1-482): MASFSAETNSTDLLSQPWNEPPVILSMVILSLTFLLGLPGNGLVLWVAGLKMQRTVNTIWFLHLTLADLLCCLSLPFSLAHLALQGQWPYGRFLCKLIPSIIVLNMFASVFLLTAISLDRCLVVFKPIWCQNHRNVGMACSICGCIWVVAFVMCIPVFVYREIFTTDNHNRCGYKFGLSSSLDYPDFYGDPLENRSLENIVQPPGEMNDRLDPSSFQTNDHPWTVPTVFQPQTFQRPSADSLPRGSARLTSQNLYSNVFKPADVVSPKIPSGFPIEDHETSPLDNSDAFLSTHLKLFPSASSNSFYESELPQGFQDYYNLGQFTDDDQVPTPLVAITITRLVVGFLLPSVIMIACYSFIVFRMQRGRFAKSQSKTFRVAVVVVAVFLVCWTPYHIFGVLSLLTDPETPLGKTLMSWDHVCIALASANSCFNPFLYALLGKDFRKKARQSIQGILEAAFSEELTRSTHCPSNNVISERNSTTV
# 348 GPCRs [7] = target: T6, 348 GPCRs (Homo sapiens, UniProt Q9HBW0); settings: 10µM, Favipiravir 100μM
# T6 construct: expressed in transfected cells; host or cells: HEK293A
# 348 GPCRs [8] = target: T7, 348 GPCRs (Homo sapiens, UniProt O43603); settings: 10µM, Favipiravir 100μM
# T7 construct: expressed in transfected cells; host or cells: HEK293A
# T7 sequence (O43603 1-387): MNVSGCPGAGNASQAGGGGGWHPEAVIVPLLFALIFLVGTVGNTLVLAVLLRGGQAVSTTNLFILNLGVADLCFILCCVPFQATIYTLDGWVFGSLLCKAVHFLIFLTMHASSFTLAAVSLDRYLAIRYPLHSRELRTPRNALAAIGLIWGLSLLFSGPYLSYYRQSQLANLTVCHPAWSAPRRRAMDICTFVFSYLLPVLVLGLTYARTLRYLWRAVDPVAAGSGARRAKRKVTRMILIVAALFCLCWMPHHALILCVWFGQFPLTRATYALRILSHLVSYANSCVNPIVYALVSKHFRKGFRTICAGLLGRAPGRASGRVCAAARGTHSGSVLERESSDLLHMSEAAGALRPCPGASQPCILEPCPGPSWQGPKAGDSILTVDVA
# [9] = GPCR α1D (adrenoceptor alpha 1D), read-out: % GPCR activation compared to TPA
# [10] = GPCR GPR52 (G protein-coupled receptor 52), read-out: % GPCR activation compared to TPA
# [11] = CCR1 (chemokine (C-C motif) receptor 1), read-out: % GPCR activation compared to TPA
# [12] = F2RL1 (coagulation factor II (thrombin) receptor-like 1), read-out: % GPCR activation compared to TPA
# [13] = C3AR1 (complement C3a receptor 1), read-out: % GPCR activation compared to TPA
# [14] = LPAR2 (lysophosphatidic acid receptor 2), read-out: % GPCR activation compared to TPA
# [15] = GAL2 (galanin receptor 2), read-out: % GPCR activation compared to TPA
# [16] = read-out: % GPCR activation compared to TPA, GPCR α1D (adrenoceptor alpha 1D)
# [17] = read-out: % GPCR activation compared to TPA, GPCR GPR52 (G protein-coupled receptor 52)
# [18] = read-out: % GPCR activation compared to TPA, CCR1 (chemokine (C-C motif) receptor 1)
# [19] = read-out: % GPCR activation compared to TPA, F2RL1 (coagulation factor II (thrombin) receptor-like 1)
# [20] = read-out: % GPCR activation compared to TPA, C3AR1 (complement C3a receptor 1)
# [21] = read-out: % GPCR activation compared to TPA, LPAR2 (lysophosphatidic acid receptor 2)
# [22] = read-out: % GPCR activation compared to TPA, GAL2 (galanin receptor 2)
# Sequence of 348 GPCRs (Homo sapiens, UniProt P41145) (P41145 whole entry): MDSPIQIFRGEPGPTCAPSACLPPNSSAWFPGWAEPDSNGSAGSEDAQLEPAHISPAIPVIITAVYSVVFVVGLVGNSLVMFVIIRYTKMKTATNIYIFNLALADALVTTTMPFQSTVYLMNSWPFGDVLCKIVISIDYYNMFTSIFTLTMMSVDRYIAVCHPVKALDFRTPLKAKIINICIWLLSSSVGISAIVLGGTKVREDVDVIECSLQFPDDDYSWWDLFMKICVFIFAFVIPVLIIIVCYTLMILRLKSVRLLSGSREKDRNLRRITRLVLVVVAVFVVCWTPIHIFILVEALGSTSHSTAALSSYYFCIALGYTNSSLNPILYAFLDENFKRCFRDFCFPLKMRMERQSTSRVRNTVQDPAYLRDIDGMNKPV
# T6 sequence (Q9HBW0 whole entry): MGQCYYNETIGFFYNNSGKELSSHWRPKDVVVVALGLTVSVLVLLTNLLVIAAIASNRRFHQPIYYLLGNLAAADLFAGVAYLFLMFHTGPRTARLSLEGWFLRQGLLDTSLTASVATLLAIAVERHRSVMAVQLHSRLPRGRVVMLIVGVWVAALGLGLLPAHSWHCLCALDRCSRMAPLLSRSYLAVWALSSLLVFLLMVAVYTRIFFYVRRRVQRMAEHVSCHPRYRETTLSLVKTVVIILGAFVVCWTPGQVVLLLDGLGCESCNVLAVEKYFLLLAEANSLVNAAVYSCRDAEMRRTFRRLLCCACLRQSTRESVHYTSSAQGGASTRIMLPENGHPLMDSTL
# T2 sequence (Q9Y2T5 whole entry): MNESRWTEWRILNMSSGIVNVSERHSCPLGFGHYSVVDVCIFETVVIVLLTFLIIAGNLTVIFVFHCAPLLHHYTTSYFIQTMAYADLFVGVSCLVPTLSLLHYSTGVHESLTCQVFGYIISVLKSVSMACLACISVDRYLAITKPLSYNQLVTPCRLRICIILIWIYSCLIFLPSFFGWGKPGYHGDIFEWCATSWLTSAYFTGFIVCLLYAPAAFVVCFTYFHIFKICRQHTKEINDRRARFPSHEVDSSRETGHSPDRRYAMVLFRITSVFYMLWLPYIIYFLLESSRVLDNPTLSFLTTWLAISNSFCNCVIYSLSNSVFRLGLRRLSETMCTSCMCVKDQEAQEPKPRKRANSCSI
SMILES,activation at 100 µM (348 GPCRs [1]) [%],activation at 10 µM (348 GPCRs [2]; [9]) [%],activation at 10 µM (348 GPCRs [3]; [10]) [%],activation at 100 µM (348 GPCRs [4]; [11]) [%],activation at 10 µM (348 GPCRs [5]; [12]) [%],activation at 10 µM (348 GPCRs [6]; [13]) [%],activation at 10 µM (348 GPCRs [7]; [14]) [%],activation at 100 µM (348 GPCRs [8]; [15]) [%],activation at 10 µM (348 GPCRs [2]; [16]) [%],activation at 10 µM (348 GPCRs [3]; [17]) [%],activation at 100 µM (348 GPCRs [4]; [18]) [%],activation at 10 µM (348 GPCRs [5]; [19]) [%],activation at 10 µM (348 GPCRs [6]; [20]) [%],activation at 10 µM (348 GPCRs [7]; [21]) [%],activation at 100 µM (348 GPCRs [8]; [22]) [%],"activation at 100 µM (348 GPCRs [2]; GPCR α1D (adrenoceptor alpha 1D), 100μM, read-out: % GPCR activation compared to TPA) [%]","activation at 100 µM (348 GPCRs [3]; GPCR GPR52 (G protein-coupled receptor 52), 100μM, read-out: % GPCR activation compared to TPA) [%]"
N#C[C@@]1(c2ccc3c(N)ncnn23)O[C@H](CO)[C@@H](O)[C@H]1O [GS441524],-1.93,-1.11,-1.15,4.02,0.132,3.33,-0.123,-0.925,–,–,–,–,–,–,–,–,–
CCC(CC)COC(=O)[C@H](C)N[P@](=O)(OC[C@H]1O[C@@](C#N)(c2ccc3c(N)ncnn23)[C@H](O)[C@@H]1O)Oc1ccccc1 [remdesivir],6.17,–,–,–,–,–,–,–,1.67,-0.476,2.29,-1.25,6.7,1.11,0.971,–,–
CC(C)OC(=O)[C@H](C)N[P@](=O)(OC[C@H]1O[C@@H](n2ccc(=O)[nH]c2=O)[C@](C)(F)[C@@H]1O)Oc1ccccc1 [sofosbuvir],-1.11,–,–,–,–,–,–,–,0.0197,-2.66,-1.9,0.0736,-0.133,2.99,3.27,–,–
"NC(=O)c1nc(F)cnc1O [favipiravir, 6-fluoro-3-hydroxy-2-pyrazinecarboxamide]",-1.65,–,–,5.15,-2.7,1.69,1.47,-0.244,–,–,–,–,–,–,–,1.16,-2.31
CC(C)C(=O)OC[C@H]1O[C@@H](n2ccc(NO)nc2=O)[C@H](O)[C@@H]1O [molnupiravir],-1.39,0.273,-1.34,-1.8,-1.8,-0.773,2.59,-6.16,–,–,–,–,–,–,–,–,–
